{"source": "patent US7763615B2", "about": "“Ecteinascidin analogs for use as antitumour agents” (priority 2001, dated 2010)", "key": {"[1]": {"tested_on": "H9c2 (2-1), normal rat cardiac muscle cells", "settings": "24 h"}, "[2]": {"target": "CYP2D6 (Homo sapiens, UniProt P10635)", "sequence (P10635 whole entry)": "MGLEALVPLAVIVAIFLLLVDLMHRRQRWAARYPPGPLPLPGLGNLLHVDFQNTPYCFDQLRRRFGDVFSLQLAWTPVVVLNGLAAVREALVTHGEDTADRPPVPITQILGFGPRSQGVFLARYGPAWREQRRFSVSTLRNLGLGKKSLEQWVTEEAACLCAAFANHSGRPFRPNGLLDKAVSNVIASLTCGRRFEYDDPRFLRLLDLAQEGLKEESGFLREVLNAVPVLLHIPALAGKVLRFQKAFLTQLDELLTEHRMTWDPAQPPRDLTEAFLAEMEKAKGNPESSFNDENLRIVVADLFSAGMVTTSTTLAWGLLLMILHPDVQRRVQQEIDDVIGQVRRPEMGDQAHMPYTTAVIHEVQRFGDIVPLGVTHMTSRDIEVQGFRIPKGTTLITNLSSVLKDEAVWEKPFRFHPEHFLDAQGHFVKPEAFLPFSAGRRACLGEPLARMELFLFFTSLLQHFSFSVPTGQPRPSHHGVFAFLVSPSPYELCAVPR", "assay": "in vitro", "settings": "CYP2D6 (% inhibition)"}, "[3]": {"target": "CYP3A4 (Homo sapiens, UniProt P08684)", "sequence (P08684 whole entry)": "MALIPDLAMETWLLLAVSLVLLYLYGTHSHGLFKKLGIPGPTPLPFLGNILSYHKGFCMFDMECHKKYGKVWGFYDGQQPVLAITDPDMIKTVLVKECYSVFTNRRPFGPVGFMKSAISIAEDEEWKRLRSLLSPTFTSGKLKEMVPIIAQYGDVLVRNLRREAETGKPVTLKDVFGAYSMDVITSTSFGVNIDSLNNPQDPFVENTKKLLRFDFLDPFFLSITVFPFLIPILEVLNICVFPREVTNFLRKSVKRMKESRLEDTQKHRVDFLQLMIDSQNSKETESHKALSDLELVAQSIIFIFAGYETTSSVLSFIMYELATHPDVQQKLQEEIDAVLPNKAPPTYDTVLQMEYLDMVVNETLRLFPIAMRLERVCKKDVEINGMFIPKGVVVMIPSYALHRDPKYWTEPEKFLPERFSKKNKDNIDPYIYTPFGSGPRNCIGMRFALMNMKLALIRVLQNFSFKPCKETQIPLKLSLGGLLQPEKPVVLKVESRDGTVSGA", "assay": "in vitro", "settings": "CYP3A4 (% inhibition)"}}, "data": [{"compound": "COc1c(C)cc2c(c1O)[C@@H]1C3[C@@H]4SC[C@]5(NCCc6c5[nH]c5c(C)cccc65)C(=O)COC[C@@H](c5c6c(c(C)c(OC(C)=O)c54)OCO6)N3[C@@H](O)[C@H](C2)N1C", "note": "(stereo partly drawn) [Compound 36]", "values": [{"measurement": "Heart", "setting": "[1]", "value": "8.86E−07"}, {"measurement": "inhibition at 450 min, 10 µM", "setting": "[2]", "value": 15, "unit": "%"}, {"measurement": "inhibition at 30 min, 10 µM", "setting": "[3]", "value": 78, "unit": "%"}]}]}
